# Experimental data taken from publication PMC4438233, “Antibacterial effects of Traditional Chinese Medicine monomers against Streptococcus pneumoniae via inhibiting pneumococcal histidine kinase (VicK)” (Frontiers in Microbiology, 2015).
# pIC50: −log10 of the molar value. Several values for one entry are separate records, joined by “and”; a condition that tells them apart may be missing. Equal entries are not always repeated. Where two headings read alike, the source gives them in different places.
# Legend:
# S. pneumoniae NCTC7466 [1] = experiment: MIC against S. pneumoniae NCTC7466 (D39); type: cell-based; conditions: Streptococcus pneumoniae
# Protocol: (§1) Minimum inhibitory concentration (MIC) assays for the antibacterial activities of the compounds were performed according to the standard […] method of the Clinical and Laboratory Standards Institute of America. MIC testing of drug-resistant S. pneumoniae, drug-resistant S. aureus, streptococci and antimicrobial combination was also performed using the same method. Briefly, the drugs were serially diluted 2-fold into eight wells with C+Y medium, yielding final concentrations ranging from […]. Then 10^6 CFU bacteria were added to each well. Inoculated medium containing 1% DMSO served as a bacterial growth control, whereas uninoculated medium served as a sterility control. The plates were incubated at 37°C for 12–16 h. […] The experiment was repeated three times.
# S. pneumoniae NCTC7466 [2] = experiment: Mouse sepsis model, survival time; type: in vivo, BALB/c mice; conditions: i.p. infection 1 × 10^3 CFU, drug i.p. thrice a day for 3 d, untreated control 28.8 ± 1.25
# Protocol: Female BALB/c mice (12–15 per group) aged 4–6 weeks were used to evaluate the antimicrobial effects of the compounds in vivo. In sepsis models, the mice were intraperitoneally infected with 100 μL S. pneumoniae NCTC7466 strain suspension (1 × 10^3 CFU). […] Two control groups were injected with 100 μL 1% DMSO (dissolved the drugs, negative control) or PEN (0.42 mg/kg/d, positive control) following the same injection route. The result was expressed as cumulative survival times following 7 d of observation.
# S. mitis = experiment: MIC against S. mitis; type: cell-based; conditions: Streptococcus mitis
# Protocol: as §1
# S. pneumoniae = experiment: Checkerboard test with erythromycin or tetracycline against S. pneumoniae; type: cell-based, Streptococcus pneumoniae
# Protocol: The antimicrobial effects of different combinations of two antimicrobial agents were assayed using the checkerboard test (Bajaksouzian et al., [1997]). Each experiment was repeated thrice. […] The FIC index (FICI) was calculated using the following formula:
# (§2) (2) FIC=FICA+FICB=[A]/MICA+[B]/MICB
# (§3) where [A] and [B] are the concentrations of drugs A and B, respectively; MICA and FICA are the MIC and FIC of drug A for the organism, respectively; and MICB, and FICB are the MIC and FIC of drug B for the organism, respectively. The FIC index obtained was interpreted as follows: =0.5, synergy; FIC > 2.0, antagonism (Gupta and Kohli, [2003]).
# Cytotoxicity assay (MTT) = type: cell-based; conditions: African green monkey, Vero cells
# Protocol: The cytotoxicity of the drugs to Vero cells (African green monkey kidney cells) was detected as previously described (Huang et al., [2012]) with minor modifications. In 96-well cell culture plates, the cells (~10^3 cells per well) were exposed to the serially diluted drugs for 48 h. Then, relative cell numbers were assayed by co-incubation with 3-(4, 5-dimethylthiazol-2-yl)-2, 5-diphenyltetrazolium bromide for 4 h at 37°C in 5% CO2. Purple formazan salts were dissolved with DMSO after incubation. The absorbance of each well was measured at 595 nm and then converted to percentages of the control (cells treated with 1% DMSO). The concentration of the derivatives with 50% cytotoxicity for Vero cells (CC50) was calculated using GraphPad Prism 5 (San Diego, CA).
# [3] = test system: Penicillin-resistant S. pneumoniae strains; experiment: Checkerboard test with penicillin against penicillin-resistant S. pneumoniae; type: cell-based, Streptococcus pneumoniae; conditions: agent alone; for MIC: Streptococcus pneumoniae
# Protocol: as §1
# (§4) The antimicrobial effects of different combinations of two antimicrobial agents were assayed using the checkerboard test (Bajaksouzian et al., [1997]). Each experiment was repeated thrice. The in vitro interaction between the five drugs with PEN was quantified by the fractional inhibitory concentration (FIC). The FIC index (FICI) was calculated using the following formula:
# as §2, §3
# S. mutans = experiment: MIC against S. mutans; type: cell-based; conditions: Streptococcus mutans
# Protocol: as §1
# S. pseudopneumoniae = experiment: MIC against S. pseudopneumoniae; type: cell-based; conditions: Streptococcus pseudopneumoniae
# Protocol: as §1
# pneumococcal strains = experiment: MIC against clinical pneumococcal strains (penicillin susceptible, intermediate, resistant); type: cell-based, Streptococcus pneumoniae; conditions: for MIC50 / MIC90: Streptococcus pneumoniae
# Protocol: as §1
# full-length VicK protein = molecular target: T1, full-length VicK protein (Streptococcus pneumoniae, UniProt Q8DPL8); experiment: Inhibition assay for ATPase activity of VicK (Kinase-Glo Luminescent Kinase Assay); type: biochemical; conditions: 6 μg VicK, 5 μM ATP; for pIC50: IC50 (inhibition of VicK ATPase activity / autophosphorylation); for IC50: read-out: IC50 (inhibition of VicK ATPase activity / autophosphorylation) (converted)
# T1 construct: 6 His; made in house
# T1 sequence (Q8DPL8 whole entry): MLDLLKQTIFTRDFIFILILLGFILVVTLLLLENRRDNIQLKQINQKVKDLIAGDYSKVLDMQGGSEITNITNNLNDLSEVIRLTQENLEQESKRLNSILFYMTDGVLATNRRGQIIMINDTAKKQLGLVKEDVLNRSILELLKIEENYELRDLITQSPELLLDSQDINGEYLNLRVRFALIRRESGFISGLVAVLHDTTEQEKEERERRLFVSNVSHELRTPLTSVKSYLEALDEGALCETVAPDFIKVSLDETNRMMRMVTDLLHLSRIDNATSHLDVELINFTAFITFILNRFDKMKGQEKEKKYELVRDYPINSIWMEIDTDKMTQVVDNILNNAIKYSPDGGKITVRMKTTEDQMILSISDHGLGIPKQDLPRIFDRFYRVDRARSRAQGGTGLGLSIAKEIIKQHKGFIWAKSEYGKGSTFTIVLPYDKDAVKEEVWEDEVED
# Protocol: The inhibitory activities of the Chinese medicine monomers for the ATPase activity of the full-length VicK protein were evaluated using the Kinase-Glo™Luminescent Kinase Assay (Promega, Madison, USA). Briefly, 6 μg VicK protein was pre-incubated with a series of dilution of compounds in the reaction buffer at 37°C for 30 min. 5 μM ATP was added and incubated for another 30 min. Kinase-Glo™Reagent was also added to detect the remaining ATP recorded from luminescence measurements (RLU). In parallel, the VicK protein with no addition of compounds was used as a control, and the mixture with compounds excluding the VicK protein served as another control. The rate of protein phosphorylation (Rp) inhibition by the compounds was calculated from Equation (1).
# (1) Rp=1−RLU(compound+ATP+Reagent) −RLU(compound+ATP+vick+Reagent)/RLU(ATP +Reagent)−RLU(ATP+vick+Reagent)×100%
# The half maximal inhibitory concentration (IC50), which is the concentration of inhibition of 50% VicK protein autophosphorylation, was determined by GraphPad Prism 5 (Qin et al., [2006]).
# S. pyogenes = experiment: MIC against S. pyogenes; type: cell-based; conditions: Streptococcus pyogenes
# Protocol: as §1
# [4] = test system: clinical S. pneumoniae 19F (CMCC31693); experiment: Mouse colonization model, serotype 19F; type: in vivo, BALB/c mice; conditions: 19F
# Protocol: (§5) In colonization models, the mice were intranasally challenged by 20 μL of clinical drug-resistant strains (pneumococcal serotype 19F or 19A, 1.5 × 10^8 CFU). An hour later, the mice were intraperitoneally injected with 100 μL drugs (2 × MIC) alone or in combination with PEN (2 × MIC). These injections were continued thrice a day for 3 d. Nasal wash and lung tissues were obtained to analyze the bacteria load at 24, 48, and 72 h after drug infection. Then 100 μL aliquots of the samples diluted were plated on blood agar plates. The colonies were counted after incubation overnight at 37°C with 5% CO2.
# [5] = test system: clinical S. pneumoniae 19A (CMCC31689); experiment: Mouse colonization model, serotype 19A; type: in vivo, BALB/c mice; conditions: 19A
# Protocol: as §5
# S. aureus = experiment: Checkerboard test with penicillin against S. aureus; type: cell-based, Staphylococcus aureus; conditions: agent alone
# Protocol: as §1, §4, §2, §3
# [6] = in combination with Erythromycin
# [7] = in combination with Tetracycline
# [8] = Penicillin intermediate (n = 12)
compound,measurement,setting,value
"CCCCCCCC=NNc1ccc([N+](=O)[O-])cc1[N+](=O)[O-] [Compound 2, Octanal 2,4-dinitrophenylhydrazone]",MIC,"S. pneumoniae NCTC7466 [1]; S. pneumoniae NCTC7466 (D39), read-out: MIC",38.5 µg/mL
same,MIC,"S. pneumoniae NCTC7466 [1]; S. pneumoniae NCTC7466 (D39), value in parentheses, read-out: MIC",125 µM
same,Mean survival of mice ± SEM,S. pneumoniae NCTC7466 [2],42.1 ± 4.1 h
same,MIC,"S. mitis; S. mitis clinical isolate, 10^6 CFU/ml, read-out: MIC",308 µg/mL
same,FICI,S. pneumoniae; [6],2
same,FICI,S. pneumoniae; [7],0.75
same,CC50 at 48 h,Cytotoxicity assay (MTT),> 4000 µM
same,MIC,"[3]; strain 652336, read-out: MIC, Alone",154 µg/mL
same,MIC,"[3]; strain 736007, read-out: MIC, Alone",154 µg/mL
same,MIC,"[3]; strain 8364981, read-out: MIC, Alone",77 µg/mL
same,MIC,"[3]; strain 12092624, read-out: MIC, Alone",154 µg/mL
same,MIC,"S. mutans; S. mutans clinical isolate, 10^6 CFU/ml, read-out: MIC",616 µg/mL
same,MIC,"S. pseudopneumoniae; S. pseudopneumoniae clinical isolate, 10^6 CFU/ml, read-out: MIC",154 µg/mL
same,"MIC of pneumococcal strains, Range",pneumococcal strains; [8],38 to 154 µg/mL
same,"MIC of pneumococcal strains, Range",pneumococcal strains; Penicillin resistant (n = 15),77 to 616 µg/mL
same,"MIC of pneumococcal strains, Range",pneumococcal strains; Penicillin susceptible (n = 7),76 to 152 µg/mL
same,MIC50,"pneumococcal strains; Penicillin intermediate (n = 12), read-out: MIC of pneumococcal strains, MIC50",77 µg/mL
same,MIC90,"pneumococcal strains; Penicillin intermediate (n = 12), read-out: MIC of pneumococcal strains, MIC90",154 µg/mL
same,MIC50,"pneumococcal strains; Penicillin resistant (n = 15), read-out: MIC of pneumococcal strains, MIC50",308 µg/mL
same,MIC90,"pneumococcal strains; Penicillin resistant (n = 15), read-out: MIC of pneumococcal strains, MIC90",616 µg/mL
same,MIC50,"pneumococcal strains; Penicillin susceptible (n = 7), read-out: MIC of pneumococcal strains, MIC50",152 µg/mL
same,MIC90,"pneumococcal strains; Penicillin susceptible (n = 7), read-out: MIC of pneumococcal strains, MIC90",152 µg/mL
same,pIC50,full-length VicK protein,5.27
same,pIC50,full-length VicK protein; value in parentheses,5.27
same,MIC,"S. pyogenes; S. pyogenes clinical isolate, 10^6 CFU/ml, read-out: MIC",308 µg/mL
"COC1=CC(=O)O[C@@H](/C=C/c2ccc3c(c2)OCO3)C1 [Compound 4, Kavahin]",MIC,S. pneumoniae NCTC7466 [1]; NCTC7466,68.5 µg/mL and 250 µM
same,Mean survival of mice ± SEM,S. pneumoniae NCTC7466 [2]; listed as Kavahin,71.1 ± 7.1 h
same,Mean survival of mice ± SEM,S. pneumoniae NCTC7466 [2]; listed as kavahin,71 h
same,MIC,S. mitis,274 µg/mL
same,FICI,S. pneumoniae; [6],0.5
same,Outcome,S. pneumoniae; [6],"Synergy (=0.5, synergy)"
same,FICI,S. pneumoniae; [7],0.51
same,CC50 at 48 h,Cytotoxicity assay (MTT),> 8000 µM
same,MIC,"[3]; read-out: MIC, Alone, strain 652336",548 µg/mL
same,MIC,"[3]; read-out: MIC, Alone, strain 736007",274 µg/mL
same,MIC,"[3]; read-out: MIC, Alone, strain 8364981",548 µg/mL
same,MIC,"[3]; read-out: MIC, Alone, strain 12092624",274 µg/mL
same,MIC,S. mutans,274 µg/mL
same,MIC,S. pseudopneumoniae,34 µg/mL
same,"MIC of pneumococcal strains, Range",pneumococcal strains; [8],68 to 518 µg/mL
same,"MIC of pneumococcal strains, Range",pneumococcal strains; Penicillin resistant (n = 15),68.5 to 548 µg/mL
same,"MIC of pneumococcal strains, Range",pneumococcal strains; Penicillin susceptible (n = 7),34 to 272 µg/mL
same,MIC50,"pneumococcal strains; read-out: MIC of pneumococcal strains, MIC50, Penicillin intermediate (n = 12)",137 µg/mL
same,MIC50,"pneumococcal strains; read-out: MIC of pneumococcal strains, MIC50, Penicillin resistant (n = 15)",274 µg/mL
same,MIC50,"pneumococcal strains; read-out: MIC of pneumococcal strains, MIC50, Penicillin susceptible (n = 7)",68.5 µg/mL
same,MIC90,"pneumococcal strains; read-out: MIC of pneumococcal strains, MIC90, Penicillin intermediate (n = 12)",274 µg/mL
same,MIC90,"pneumococcal strains; read-out: MIC of pneumococcal strains, MIC90, Penicillin resistant (n = 15)",548 µg/mL
same,MIC90,"pneumococcal strains; read-out: MIC of pneumococcal strains, MIC90, Penicillin susceptible (n = 7)",136 µg/mL
same,IC50,full-length VicK protein,4.6 µM
same,IC50,full-length VicK protein; value in parentheses,4.56 µM
same,MIC,S. pyogenes,274 µg/mL
"CC1(C)S[C@@H]2[C@H](NC(=O)Cc3ccccc3)C(=O)N2[C@H]1C(=O)O [Penicillin, penicillin, reference compound]",Mean log CFU at site of infection,"[4]; Lung, 24 h, control 2.82",1 log CFU
same,Mean log CFU at site of infection,"[4]; Lung, 48 h, control 7.57",2.58 log CFU
same,Mean log CFU at site of infection,"[4]; Lung, 72 h, control 4.95",3.22 log CFU
same,Mean log CFU at site of infection,"[4]; NW (nasal wash), 24 h, i.p. three times a day for 3 days, control 6.72",6.21 log CFU
same,Mean log CFU at site of infection,"[4]; NW, 48 h, control 6.27",2.1 log CFU
same,Mean log CFU at site of infection,"[4]; NW, 72 h, control 7.09",6.12 log CFU
same,Mean log CFU at site of infection,"[5]; Lung, 24 h, control 4.85",4.8 log CFU
same,Mean log CFU at site of infection,"[5]; Lung, 48 h, control 6.12",4.5 log CFU
same,Mean log CFU at site of infection,"[5]; Lung, 72 h, control 6.29",4.89 log CFU
same,Mean log CFU at site of infection,"[5]; NW (nasal wash), 24 h, i.p. three times a day for 3 days, control 7.29",6.44 log CFU
same,Mean log CFU at site of infection,"[5]; NW, 48 h, control 5.97",5.88 log CFU
same,Mean log CFU at site of infection,"[5]; NW, 72 h, control 6.01",5.34 log CFU
same,"MIC, Alone",[3]; strain 652336,4.4 µg/mL
same,"MIC, Alone",[3]; strain 736007,7.1 µg/mL
same,"MIC, Alone",[3]; strain 8364981,3.56 µg/mL
same,"MIC, Alone",[3]; strain 12092624,3.56 µg/mL
same,"MIC, Alone",S. aureus; MRSA8506305,6682 µg/mL
same,"MIC, Alone",S. aureus; MRSA8548991,3339 µg/mL
same,"MIC, Alone",S. aureus; S. aureus ATCC29213,52 µg/mL
